Like-named read-outs stand apart in the source and are kept apart here.
Legend:
[1] = system: pentylenetetrazol seizures; assay: subcutaneous pentylenetetrazol (scMet) test, Phase I, mice ip; assay type: in vivo, male Carworth Farms No. 1 (CF1) mice; conditions: for responders at 30 mg/kg / responders at 100 mg/kg / responders at 300 mg/kg / responders at 10 mg/kg: Mus musculus
Method: (§1) Initial evaluations for anticonvulsant activity include phases I, VIA and VIB test procedures. These tests are performed intraperitoneally in male Carworth Farms No. 1 (CF1) mice, weighing 18-25 g (Phase I) or orally in male Sprague-Dawley rats, weighing 100-150 g (Phases VIA and VIB). The evaluation is based on three tests: maximal electroshock (MES), subcutaneous (scMet), and the rotorod test for neurological toxicity (Tox). (a) Anticonvulsant Screening Project, Antiepileptic Drug Development Program, National Institutes of Health, DHEW Publ (NIH)(U.S.) 1978, NIH 78-1093. (b) Porter, R. J.; Cereghino, J. J.; Gladding, G. D.; Hessie, B. J.; Kupferberg, H. J.; Scoville, B.; White, B. G. Antiepileptic drug development program. Cleveland Clin. Q. 1984, 51, 293-305. (c) Krall, R. L.; Penry, J. K.; White, B. G.; Kupferberg, H. J.; Swinyard, E. A. Antiepileptic drug development: II. Anticonvulsant drug screening. Epilepsia 1978, 19, 400-428. In the MES test, maximal electroshock seizures are elicited with a 60- cycle alternating current of 50 mA intensity (5-7 times that necessary to elicit minimal electroshock seizures) delivered via corneal electrodes for 0.2 seconds. A drop of 0.9% saline is placed on the eye prior to application of the electrodes in order to […]. Abolition of the hind limb tonic extension component of the seizure is defined as protection and results are expressed as the number of animals protected/the number of animals tested.
In the sc MET test, eighty-five mg/kg of pentylenetetrazol, which induces seizures in more than 95% of mice, is administered as a 0.5% solution subcutaneously in the posterior midline. The animal is observed for 30 minutes. Failure to observe even a threshold seizure (a single episode of clonic spasms of at least 5 seconds duration) is defined as protection and the results are expressed as the number of animals protected/ the number of animals tested. […]

[2] = system: maximal electroshock seizures; assay: maximal electroshock (MES) test, Phase I, mice ip; assay type: in vivo, male Carworth Farms No. 1 (CF1) mice; conditions: for responders at 30 mg/kg / responders at 100 mg/kg / responders at 300 mg/kg / responders at 10 mg/kg: Mus musculus
Method: as §1
In phase I, compounds are suspended in 0.5% aqueous methylcellulose and are administered intraperitoneally at three dosage levels (30, 100, and 300 mg/kg) with anticonvulsant activity and motor impairment noted 30 min and 4 h (and in some cases 2 h and 6 h) after administration.

neurotoxicity (rotorod) [3] = assay: rotorod test for neurological toxicity (Tox), Phase I, mice ip; assay type: in vivo, male Carworth Farms No. 1 (CF1) mice
Method: as §1
The rotorod test is used to evaluate neurotoxicity. The animal is placed on a 1 inch diameter knurled plastic rod rotating at 6 rpm. Normal mice can remain on a rod rotating at this speed indefinitely. […]

[4] = system: maximal electroshock seizures; assay: maximal electroshock (MES) test, oral rat (Phase VIA/VIB); assay type: in vivo, male Sprague-Dawley rats; conditions: 30 mg/kg
Method: as §1
(§2) To differentiate the results between different rodent species, 4b (X=H), as well as 4a (R=H), 4e (R=Cl), 4f (R=Cl) and 4i (R=CH3) are subsequently evaluated for oral (po) activity in the rat (Phase VIA or VIB).

neurotoxicity (rotorod) [5] = assay: rotorod toxicity, oral rat (Phase VIA/VIB); assay type: in vivo, male Sprague-Dawley rats; conditions: rat oral, 30 mg/kg
Method: as §1
The rotorod test is used to evaluate neurotoxicity. The animal is placed on a 1 inch diameter knurled plastic rod rotating at 6 rpm. Normal mice can remain on a rod rotating at this speed indefinitely.
as §2

[6] = system: threshold tonic extension electroshock seizures; assay: Threshold Tonic Extension (TTE) test, mice ip; assay type: in vivo; conditions: 100 mg/kg
From the text: (§3) Piredda, S. G.; Woodhead, J. H.; Swinyard, E. A. Effect of stimulus intensity on the profile of anticonvulsant activity of phenytoin, ethosuximide and valproate. J. Pharmacol. Exp. Ther. 1985, 232, 741-745. The TTE test is a clinically nonselective, electroconvulsive seizure model that identifies compounds that raise seizure threshold as well as those that prevent seizure spread. […] The TTE test is similar to the MES screen but uses a lower level of electrical current. The lower current makes the TTE test more sensitive, but less discriminate than the MES screen. This ability makes the model attractive because it allows for the identification of compounds that may have been omitted by the standard identification screen. […] These TTE active compounds may represent compounds acting by novel mechanisms.
Twenty mice are pretreated with 100 mg/kg of the test compound. […] This stimulation produces a TTE seizure in the animals. For each time interval, results are expressed as a ratio of the number of animals protected over the number of animals tested.

[7] = system: maximal electroshock seizures; assay: MES confirmation of TTE test, mice ip; assay type: in vivo; conditions: 100 mg/kg
Method: as §1, §3
Twenty mice are pretreated with 100 mg/kg of the test compound. At several time intervals (15 min, 30 min, 1 h, 2 h and 4 h) post treatment with the test compound, four mice at each time point are challenged with 12.5 mA of electrical current for 0.2 sec via corneal electrodes. This stimulation produces a TTE seizure in the animals. For each time interval, results are expressed as a ratio of the number of animals protected over the number of animals tested.

[8] = 0.5 h, mice ip, 30 min, read-out: scMet 30 min
[9] = 0.5 h, mice ip, 30 min, read-out: scMet 30 min (converted)
[10] = mice ip, 4 h, read-out: scMet 4 h
[11] = mice ip, 4 h, read-out: scMet 4 h (converted)
[12] = 4 h, read-out: MES 4 h (converted)
[13] = 0.5 h, 30 min, read-out: MES 30 min (converted)

SMILES	responders at 30 mg/kg [1, 8]	responders at 100 mg/kg [1, 8]	responders at 300 mg/kg [1, 9]	responders at 30 mg/kg [1, 10]	responders at 100 mg/kg [1, 10]	responders at 300 mg/kg [1, 11]	responders at 30 mg/kg ([2]; 4 h, read-out: MES 4 h)	responders at 100 mg/kg [2, 12]	responders at 300 mg/kg [2, 12]	responders at 30 mg/kg [2, 13]	responders at 100 mg/kg [2, 13]	responders at 300 mg/kg [2, 13]	Tox 30 min (neurotoxicity (rotorod) [3]; 30 mg/kg)	Tox 4 h (neurotoxicity (rotorod) [3]; 30 mg/kg)	Tox 30 min (neurotoxicity (rotorod) [3]; 100 mg/kg)	Tox 4 h (neurotoxicity (rotorod) [3]; 100 mg/kg)	Tox 30 min (neurotoxicity (rotorod) [3]; 300 mg/kg)	Tox 4 h (neurotoxicity (rotorod) [3]; 300 mg/kg)	responders at 30 mg/kg ([4]; 0.25 h)	responders at 30 mg/kg ([4]; 1.00 h)	other results
CCOC(=O)[C@@H]1C(=O)C2=C(C[C@H]1C)Nc1ccc(Cl)cc1S2 (relative stereo) [Compound 4f, 7-Chloro-3-carbethoxy-2-methyl-2,3-dihydro-1H-phenothiazin-4[10H] -one]	0%	0%	0%	0%	0%	40%	0%	33.3%	100%	0%	66.7%	100%	0/4	0/2	0/8	0/4	0/4	0/2	0%	75%	responders at 30 mg/kg ([4]; 2.00 h): 75%; responders at 30 mg/kg ([4]; 4.00 h): 75%; responders at 30 mg/kg ([4]; 0.5 h, 0.50 h): 25%; Tox (neurotoxicity (rotorod) [5]; 0.25 h): 0/4; Tox (neurotoxicity (rotorod) [5]; 0.50 h): 0/4; Tox (neurotoxicity (rotorod) [5]; 1.00 h): 0/4; Tox (neurotoxicity (rotorod) [5]; 2.00 h): 0/4; Tox (neurotoxicity (rotorod) [5]; 4.00 h): 0/4
CCOC(=O)[C@@H]1C(=O)C2=C(C[C@H]1C)Nc1ccc(C)cc1S2 (relative stereo) [Compound 4i, 3-Carbethoxy-2,7-dimethyl-2,3-dihydro-1H-phenothiazin-4[10H]-one]	0%	0%	0%	0%	0%	0%	0%	0%	100%	50%	33.3%	100%	0/4	0/2	0/8	0/4	0/4	0/2	0%	75%	responders at 30 mg/kg ([4]; 2.00 h): 25%; responders at 30 mg/kg ([4]; 4.00 h): 0%; responders at 30 mg/kg ([4]; 0.5 h, 0.50 h): 50%; Tox (neurotoxicity (rotorod) [5]; 0.25 h): 0/4; Tox (neurotoxicity (rotorod) [5]; 0.50 h): 0/4; Tox (neurotoxicity (rotorod) [5]; 1.00 h): 0/4; Tox (neurotoxicity (rotorod) [5]; 2.00 h): 0/4; Tox (neurotoxicity (rotorod) [5]; 4.00 h): 0/4
COC(=O)[C@@H]1C(=O)C2=C(C[C@H]1C)Nc1ccc(Br)cc1S2 (relative stereo) [Compound 4j, 7-Bromo-3-carbomethoxy-2-methyl-2,3-dihydro-1H-phenothiazin-4[10H]-one]	0%	0%		0%	0%		0%	0%		33.3%	100%		0/8	0/4	0/4	0/2			50%	50%	responders at 10 mg/kg ([1]; 0.5 h, mice ip, 10 mg/kg, 30 min, read-out: scMet 30 min): 0%; responders at 10 mg/kg ([1]; mice ip, 10 mg/kg, 4 h, read-out: scMet 4 h): 0%; observation in scMet test (footnote g) ([1]; mice ip, 10 and 30 mg/kg, 30 min): Continuous seizure activity; observation in scMet test (footnote h) ([1]; mouse, in vivo, ip, 10 mg/kg): Death following continuous seizure; responders at 10 mg/kg ([2]; 4 h, read-out: MES 4 h): 0%; responders at 10 mg/kg ([2]; 0.5 h, 30 min, read-out: MES 30 min): 0%; Tox 30 min (neurotoxicity (rotorod) [3]; 10 mg/kg): 0/4; Tox 4 h (neurotoxicity (rotorod) [3]; 10 mg/kg): 0/2; responders at 30 mg/kg ([4]; 0.5 h, 0.50 h): 75%; Tox (neurotoxicity (rotorod) [5]; 0.25 h): 0/4; Tox (neurotoxicity (rotorod) [5]; 0.50 h): 0/4; Tox (neurotoxicity (rotorod) [5]; 1.00 h): 0/2
CC1CC(=O)C2=C(C1)Nc1ccccc1S2 (stereo not shown) [Compound 4d, 2-Methyl-2,3-dihydro-1H-phenothiazin-4[10H] -one]	0%	0%	0%	0%	0%	0%	0%	0%	0%	0%	0%	0%	0/4	0/2	0/8	0/4	0/4	0/2			phase I activity ([2]; Phase I, in words): inactive; TTE Result ([6]; 0.25 h): 1/4; TTE Result (repeat test) ([6]; 0.25 h): 2/4; TTE Result ([6]; 0.50 h): 3/4; TTE Result (repeat test) ([6]; 0.50 h): 2/4; TTE Result ([6]; 1.00 h): 1/4; TTE Result (repeat test) ([6]; 1.00 h): 0/4; TTE Result ([6]; 2.00 h): 3/4; TTE Result (repeat test) ([6]; 2.00 h): 0/4; TTE Result ([6]; 4.00 h): 0/4; TTE Result (repeat test) ([6]; 4.00 h): 0/4; TTE Result (repeat test) ([6]; 6.00 h): 1/4; MES confirmation ([7]; 0.25 h): 0/4; MES confirmation (repeat test) ([7]; 0.25 h): 1/4; MES confirmation ([7]; 0.50 h): 3/4; MES confirmation (repeat test) ([7]; 0.50 h): 1/4; MES confirmation ([7]; 1.00 h): 1/4; MES confirmation ([7]; 2.00 h): 0/4

Reference: patent US5994349A, “3-carboalkoxy-2, 3-dihydro-1H-phenothiazin-4[10H]-one derivatives” (priority 1997, dated 1999)
